Measured values taken from patent US20250255926A1, “GINGEROL COMPOSITIONS AND RELATED METHODS” (ThermoLife International, LLC, priority 2024, published 2025).
Where two headings read alike, the source gives them in different places.

How the values were obtained:
[1] = cited from earlier work
[2] = test system: herpes simplex virus infection; test: Herpes simplex blister outbreak in two subjects (Example 6); assay type: in vivo, human; details: same two subjects
Procedure: Two females ([…]) with a chronic herpes simplex virus infection with frequent outbreaks of blisters on their lips ingested 1000 ml of the water-soluble ginger extract produced according to Example 1 while acutely suffering from large painful blisters.
For past outbreaks, both subjects tried multiple remedies, both pharmaceutical and natural, to treat the blisters. They include Abriva®, tea tree oil, toothpaste, lysine, acyclovir, topical hydrogen peroxide, Vaseline® and Aquafor®.

## CCCCC[C@H](O)CC(=O)CCc1ccc(O)c(OC)c1 [Example 6-gingerol, 6-gingerol]
[1]; pH 2
  Solubility, pH 2 - HCl buffer: >100 μM
[1]; pH 4
  Solubility, pH 4 - citrate buffer: >100 μM
[1]; pH 7.4
  Solubility, pH 7.4 - phosphate buffer: >100 μM

## NCCCC[C@H](N)C(=O)O [lysine]
[2]
  Relief or healing of blisters in past outbreaks: None of those remedies provided any noticeable immediate relief or greater healing of the symptoms

## Nc1nc2c(ncn2COCCO)c(=O)[nH]1 [acyclovir]
[2]
  Relief or healing of blisters in past outbreaks: None of those remedies provided any noticeable immediate relief or greater healing of the symptoms

## CCCCC/C=C/C(=O)CCc1ccc(O)c(OC)c1 [Example 6-shogoal, 6-shogoal]
[1]; pH 2 HCl buffer, n = 2
  Solubility, pH 2 - HCl buffer: <10 μM
[1]; pH 4 citrate buffer, n = 2
  Solubility, pH 4 - citrate buffer: <10 μM
[1]; pH 7.4 phosphate buffer, n = 2
  Solubility, pH 7.4 - phosphate buffer: <10 μM

## CCCCCCC[C@H](O)CC(=O)CCc1ccc(O)c(OC)c1 [Example 8-gingerol, 8-gingerol]
[1]; pH 2
  Solubility, pH 2 - HCl buffer: >100 μM
[1]; pH 4
  Solubility, pH 4 - citrate buffer: >100 μM
[1]; pH 7.4
  Solubility, pH 7.4 - phosphate buffer: >100 μM

## OO [topical hydrogen peroxide, hydrogen peroxide]
[2]
  Relief or healing of blisters in past outbreaks: None of those remedies provided any noticeable immediate relief or greater healing of the symptoms

## CCCCCCCCC[C@H](O)CC(=O)CCc1ccc(O)c(OC)c1 [Example 10-gingerol, 10-gingerol]
[1]; pH 2 HCl buffer, n = 2
  Solubility, pH 2 - HCl buffer: <10 μM
[1]; pH 4 citrate buffer, n = 2
  Solubility, pH 4 - citrate buffer: <10 μM
[1]; pH 7.4 phosphate buffer, n = 2
  Solubility, pH 7.4 - phosphate buffer: <10 μM
